Measurements as given in US20040115792A1, “Yeast strain for testing the geno- and cytotoxicity of complex environmental contaminations” (priority 2000, published 2004).

Key:
[1] = system: cytochrome-P450-dependent aromatase; details: marine gastropods; Bettin et al. 1995; cited from earlier work
[2] = system: Saccharomyces cerevisiae wild strain; assay: Growth and fluorescence test in the presence of inhibitors, wild strain; format: cell-based; details: 0.05 and 0.5 ng/ml mitomycin C, 0.01 and 0.1 ng/ml TPhT, 30° C., 8 hours
[3] = system: pdr5yor1snq2 triple-mutant yeast strain; assay: Growth and fluorescence test in the presence of inhibitors, pdr5yor1snq2 triple-mutant strain; format: cell-based, Saccharomyces cerevisiae; details: 0.05 and 0.5 ng/ml mitomycin C, 0.01 and 0.1 ng/ml TPhT, 30° C., 8 hours
[4] = system: rad54::egfp reporter in yeast strain HLY5RG-12B2; assay: Genotoxic signaling: egfp under rad54 promoter, green fluorescence; details: depending on concentration: mitomycin C 0.05 and 0.5 ng/ml, TPhT 0.01 and 0.1 ng/ml, 8 hours, 30° C.
Description: (§1) Cultures of Saccharomyces cerevisiae wild strain, of the pdr5yor1snq2 triple-mutant yeast strain and of the genotoxically and cytotoxically signaling strain HLY5RG-12B2 expressing Dsred and egfp were grown in complete medium YPD (2% yeast extract, 1% peptone) with 2% D-glucose, pH 5.0, at 30° C. over night with shaking.
Subsequently, a spectral excitation at 489 nm was performed for the genotoxic substance testing, and the intensity of the emission maxima at 508 nm (specific of egfp) was measured for all cell suspensions.

[5] = system: pma1-DsRed1 reporter in yeast strain HLY5RG-12B2; assay: Cytotoxic signaling: DsRed1 under pma1 promoter, red fluorescence; details: depending on concentration: mitomycin C 0.05 and 0.5 ng/ml, TPhT 0.01 and 0.1 ng/ml, 8 hours, 30° C.
Description: as §1
For the cytotoxic substance testing, a spectral excitation at 558 nm was performed, and the intensity of the emission maxima at 583 nm (specific of DsRedp) was measured for all cell suspensions. In addition, a determination of the simple growth of the cells by measuring the optical density at 600 nm was performed.

| Substance | effect on aromatization of androgens into estrogens [1] | growth rate (doubling time) [2] | specific red (583 nm) or green (508 nm) fluorescence [2] | growth rate (doubling time) [3] | specific red (583 nm) or green (508 nm) fluorescence [3] | green fluorescence, emission maximum 508 nm (genotoxic potential) [4] | red fluorescence, emission maximum 583 nm (cytotoxic potential) [5] |
| --- | --- | --- | --- | --- | --- | --- | --- |
| tributyltin [TBT] | inhibits the aromatization of androgens into estrogens |  |  |  |  |  |  |
| triphenyltin [TPhT] |  | 90 min | without showing a specific red (cytotoxic potential) or green (genotoxic potential) fluorescence | 180 min | without showing a specific red (cytotoxic potential) or green (genotoxic potential) fluorescence | no increasing green fluorescence | increasing specific red fluorescence |
